Assay results as given in US4618682A, “2-amino-4,5-dihydro-1H-imidazole-1-carboxanilides” (McNeilab, Inc., priority 1985, dated 1986).
Structures can show the parent of a compound that is named as a salt.

Assays:
[1] = heat sensitivity of isolated salt; assay type: physicochemical
Protocol: Maintained a temperature of -10° to -13° C. throughout the addition and stirred at -10° to -15° for 3 more hours. Stored the reaction mixture in the refrigerator at +4° C. overnight. Allowed to warm to +10° C. then placed in ice/ H2 O bath and acidified to pH<3 with 10% HCl. Added to 1400 ml of ice/H2 O and stirred. Filtered some insoluble material and the filtrate basified with solid K2 CO3 (keep cold!) to pH 8-9. Filtered the resulting white solid, the free base of the product. Immediately suspended in 200 ml of MeOH and dissolved by addition of ethereal HCl to pH<3. The solvent and excess HCl were removed in vacuo to yield the crude product, a white solid. The free base was regenerated again as above and converted to the hydrochloride as before. […] 210°--212° C.

[2] = tested on: Spontaneously hypertensive rat; experiment: Rodent Antihypertensive Screen (arterial pressure and heart rate, aortic cannula); assay type: in vivo, adult spontaneously hypertensive rats (Charles River); conditions: for Duration / Effect on heart rate / Max. decr. in MAP: 35 mg/kg p.o., spontaneously hypertensive rat; for antihypertensive activity compared with corresponding rearranged N-aryl-N'-(4,5-dihydro-1H-imidazol-2-yl) ureas IV: versus corresponding ureas IV
Excerpt: This test evaluates compounds for effects on arterial pressure and heart rate. In this test, the arterial pressure of adult spontaneously hypertensive rats (Charles River) is monitored directly via an aortic cannula. Rats are anesthetized with an inhalation anesthetic (methoxyflurane). The left carotid artery is isolated and cannulated. The tip of the cannula is advanced to the aorta and the cannula is exteriorized behind the neck at the level of the scapula. Animals are placed in individual cages and allowed to recover from the anesthetic and are kept unrestrained. The arterial cannula is connected to the pressure transducer which is attached to the recorder. Heart rate is determined from the arterial pressure recording. The test compounds are administered either orally (p.o.) by gavage or by intraperitoneal (i.p.) injection. The arterial pressure and heart rate are monitored for a minumum of 24 hours. A test compound is considered to be active as an antihypertensive agent if the mean arterial pressure (MAP) indicates a fall of >15 mm of Hg. Each animal serves as his own control. The results of this test employing at least 3 rats per dose level for each compound and performed with various compounds of the present invention are shown in Table I.

Gastric fistula rat = experiment: acute gastric fistula rat test (antisecretory screen); assay type: in vivo, Female Sprague-Dawley rats; conditions: for inhibition in vivo at 20 mg/kg: intraduodenal, 20 mg/kg I.D., read-out: % Inhibition of gastric secretion; for ED50: po, 1 hr
Protocol: The principal antisecretory screen is the acute gastric fistula rat test which is carried out as follows: Female Sprague-Dawley rats are used for this study. The weights range from 125-250 gms; however, weights in any given test have a range of ±20 gms. The rats are fasted 24 hours before testing, water is given ad lib. At the time of fasting, the rats are placed in individual cages with wide mesh bottoms. This eliminates the problem of cannibalism and coprophagia. On the day of testing, the rats are weighed beforehand to determine the weight range and to allow for even distribution. Surgery is carried out under light ether anesthesia. As soon as the rat is anesthetized, its teeth are removed using a small pinch pliers. A midline incision is made on the abdomen about 11/2 cm long and the stomach is exposed. If, at this point, the stomach is filled with food or fecal material, the rat is discarded except for orally administered rats. In this case, the stomach contents are gently squeezed into the duodenum. Using a 4-0 polyester fiber suture, a purse string stitch is placed on the fundic portion of the stomach taking care to avoid any blood vessels in the area. A small nick is made into the stomach in the center of the purse string and a cannula, consisting of a small vinyl tube with a flange on one end, is put into the stomach and the purse string is closed tightly around the flange. Immediately following this, the rat is dosed intraduodenally using a volume of 0.5 ml per 100 gm body weight. The abdominal wall and skin are closed simultaneously with three to four 18 mm wound clips. The rat is then placed in a box containing a longitudinal slit which allows the cannula to hang freely and the rat is able to move about unencumbered. At the completion of the procedure, the time is marked 0 minutes. The rat is allowed to stabilize for 30 minutes, at which time the collection tube is discarded and replaced with a clean collection tube to receive the gastric juice. Only a one-hour collection is made for a screening study. In evaluation studies, one- and two-hour collections are made. At the end of the study, the cannula is pulled out and the rat is sacrificed. The gastric contents collected are drained into a centrifuge tube and centrifuged to pack down the sediment. The volume is read and a 1 ml aliquot of the supernatant is put into a beaker containing distilled water and titrated to pH 7 using 0.01 N NaOH. Mean values are determined for volume, titratable acid and total acid output where volume equals total ml of gastric juice minus sediment, titratable acid (mEq/1) equals amount of 0.01 N NaOH needed to titrate the acid to pH 7 times 10 and total acid output equals titratable acid times volume. Results are reported in percent inhibition over control values. In studies using oral administration, the drugs are dosed in a volume of 1 ml per 100 gm body weight one hour before surgery (pretreatment equals 90 minutes). In subcutaneous studies, the drug may be given immediately after the surgical procedure (pretreatment equals 30 minutes) or after the 30-minute stabilization period when the collection tube is changed (pretreatment time equals 0 minutes). The volume used in subcutaneous studies is 0.2 ml per 100 gm body weight.

For `NC1=NCCN1C(=O)Nc1ccc(Cl)c(Cl)c1` [Example 8, 2-Amino-N-(3,4-dichlorophenyl)-4,5-dihydro-1H-imidazole-1carboxamide Monohydrochloride Monohydrate, Compound with 1,1'Oxybisethane (12:1)], the sensitivity to heat [1] was “sensitive to heat”, the “loss of HCl on heating” value ([1]; above 50° /vac) was “may lose HCl” and the Duration [2] was 2.0 h. The “Effect on heart rate” value [2] was -68 beats/min, the “Max. decr. in MAP” value [2] was 44 mm Hg and the inhibition in vivo at 20 mg/kg (Gastric fistula rat) was 96%. It also gave an ED50 (Gastric fistula rat) of 24.8 mg/kg.
In the case of `NC1=NCCN1C(=O)Nc1cccc(C(F)(F)F)c1` [Example 26, 2-Amino-4,5-dihydro-N-(3-trifluoromethylphenyl)-1H-imidazole-1-carboxamide Monohydrochloride Hemihydrate], the Duration [2] is reported as 2.0 h, the “Effect on heart rate” value [2] is reported as -71 beats/min and the “Max. decr. in MAP” value [2] is reported as 24 mm Hg. It also gave an inhibition in vivo at 20 mg/kg (Gastric fistula rat) of 99%.
In the case of `Cl.NC1=NCCN1C(=O)Nc1ccc(Cl)cc1Cl` [Example 9, 2-Amino-N-(2,4-dichlorophenyl)-4,5-dihydro-1H-imidazole-1carboxamide Monohydrochloride], the Duration [2] is reported as 2.0 h, the “Effect on heart rate” value [2] is reported as -49 beats/min and the “Max. decr. in MAP” value [2] is reported as 33 mm Hg. For the same compound, the inhibition in vivo at 20 mg/kg (Gastric fistula rat) was 71% and the ED50 (Gastric fistula rat) was 14.8 mg/kg.
With `Cl.NC1=NCCN1C(=O)Nc1cccc(Cl)c1.O` [Example 11, 2-Amino-N-(3-chlorophenyl)-4,5-dihydro-1H-imidazole-1carboxamide Monohydrochloride Monohydrate] the Duration [2] was 0.5 h, the “Effect on heart rate” value [2] was -26 beats/min and the “Max. decr. in MAP” value [2] was 20 mm Hg. For the same compound, the inhibition in vivo at 20 mg/kg (Gastric fistula rat) was 77% and the ED50 (Gastric fistula rat) was 14.2 mg/kg.
For `NC1=NCCN1C(=O)Nc1cc(Cl)cc(Cl)c1` [Example 6, 2-Amino-N-(3,5-dichlorophenyl)-4,5-dihydro-1H-imidazole-1-carboxamide Monohydrochloride Hydrate (16:1)], the Duration [2] was 1.0 h, the “Effect on heart rate” value [2] was -21 beats/min and the “Max. decr. in MAP” value [2] was 22 mm Hg. It also gave an inhibition in vivo at 20 mg/kg (Gastric fistula rat) of 75% and an ED50 (Gastric fistula rat) of 22.3 mg/kg.
For `NC1=NCCN1C(=O)Nc1ccc(Cl)cc1` [Example 27, 2-Amino-N-(4-chlorophenyl)-4,5-dihydro-1H-imidazole-1-carboxamide Monohydrochloride Hydrate (17:1)], the Duration [2] was 15 h, the “Effect on heart rate” value [2] was -66 beats/min and the “Max. decr. in MAP” value [2] was 41 mm Hg. The “antihypertensive activity compared with corresponding rearranged N-aryl-N'-(4,5-dihydro-1H-imidazol-2-yl) ureas IV” value [2] was “more potent antihypertensive activity”, the inhibition in vivo at 20 mg/kg (Gastric fistula rat) was 95% and the ED50 (Gastric fistula rat) was 29.3 mg/kg.
For `Cl.NC1=NCCN1C(=O)Nc1c(Cl)cc(Cl)cc1Cl` [Example 12, 2-Amino-4,5-dihydro-N-(2,4,6-trichlorophenyl)-1H-imidazole-1-carboxamide Monohydrochloride], the Duration [2] was 0.5 h, the “Effect on heart rate” value [2] was -39 beats/min and the “Max. decr. in MAP” value [2] was 18 mm Hg. For the same compound, the inhibition in vivo at 20 mg/kg (Gastric fistula rat) was 97%.
For `NC1=NCCN1C(=O)Nc1ccccc1Cl` [Example 3, 2-Amino-N-(2-chlorophenyl)-4,5-dihydro-1H-imidazole-1-carboxamide Monohydrochloride], the Duration [2] was 2.0 h, the “Effect on heart rate” value [2] was -77 beats/min and the “Max. decr. in MAP” value [2] was 35 mm Hg. For the same compound, the inhibition in vivo at 20 mg/kg (Gastric fistula rat) was 82%.
With `Cl.NC1=NCCN1C(=O)Nc1ccc(C(F)(F)F)cc1` [Example 14, 2-Amino-4,5-dihydro-N-(4-trifluoromethylphenyl)-1H-imidazole-1-carboxamide Monohydrochloride] the Duration [2] was 5.0 h, the “Effect on heart rate” value [2] was -98 beats/min and the “Max. decr. in MAP” value [2] was 50 mm Hg. The inhibition in vivo at 20 mg/kg (Gastric fistula rat) was 70% and the ED50 (Gastric fistula rat) was 35.5 mg/kg.
In the case of `Cl.NC1=NCCN1C(=O)Nc1c(Cl)cccc1Cl` [Example 1, 2-Amino-N-(2,6-dichlorophenyl)-4,5-dihydro-1H-imidazole-1-carboxamide Monohydrochloride], the Duration [2] is reported as 0.5 h, the “Effect on heart rate” value [2] is reported as -48 beats/min and the “Max. decr. in MAP” value [2] is reported as 32 mm Hg. For the same compound, the “antihypertensive activity compared with corresponding rearranged N-aryl-N'-(4,5-dihydro-1H-imidazol-2-yl) ureas IV” value [2] was “significantly less antihypertensive activity” and the inhibition in vivo at 20 mg/kg (Gastric fistula rat) was 62%.
